Source: ChEMBL document CHEMBL1629647, “Preclinical evaluation of GS-9160, a novel inhibitor of human immunodeficiency virus type 1 integrase” (Antimicrob Agents Chemother, 2009)

Experiments:
[1] = test system: Human immunodeficiency virus 1; assay: Antiviral activity against HIV1 3B infected in human MT-2 cells by two fold dilution method in presence of 10% FBS; assay type: functional, organism-based; conditions: Human immunodeficiency virus 1, 3B, MT2
[2] = Cytotoxicity against human SupT1 cells infected with HIV1 3B; assay type: cell-based, SUP-T1; conditions: SupT1 cells infected with HIV-1 3B
[3] = test system: Human immunodeficiency virus 1; assay: Selectivity ratio of EC50 for antiviral activity against HIV1 harboring E138K and Q148K mutation in catalytic core domain of integrase to EC50 for antiviral activity against wild-type HIV1 3B; assay type: functional
[4] = test system: Human immunodeficiency virus 1; assay: Selectivity ratio of EC50 for antiviral activity against HIV1 harboring Q148K mutation in catalytic core domain of integrase to EC50 for antiviral activity against wild-type HIV1 3B; assay type: functional
[5] = test system: Human immunodeficiency virus 1; assay: Selectivity ratio of EC50 for antiviral activity against HIV1 harboring E138K mutation in catalytic core domain of integrase to EC50 for antiviral activity against wild-type HIV1 3B; assay type: functional
[6] = test system: Human immunodeficiency virus 1; assay: Selectivity ratio of EC50 for antiviral activity against HIV1 harboring G140S and Q148H mutation in catalytic core domain of integrase to EC50 for antiviral activity against wild-type HIV1 3B; assay type: functional
[7] = test system: Human immunodeficiency virus 1; assay: Selectivity ratio of EC50 for antiviral activity against HIV1 harboring L74M and E92V mutation in catalytic core domain of integrase to EC50 for antiviral activity against wild-type HIV1 3B; assay type: functional
[8] = test system: Human immunodeficiency virus 1; assay: Selectivity ratio of EC50 for antiviral activity against HIV1 harboring E92Q mutation in catalytic core domain of integrase to EC50 for antiviral activity against wild-type HIV1 3B; assay type: functional
[9] = test system: Human immunodeficiency virus 1; assay: Selectivity ratio of EC50 for antiviral activity against HIV1 harboring L74M mutation in catalytic core domain of integrase to EC50 for antiviral activity against wild-type HIV1 3B; assay type: functional
[10] = test system: Human immunodeficiency virus 1; assay: Selectivity ratio of EC50 for antiviral activity against HIV1 harboring T66I mutation in catalytic core domain of integrase to EC50 for antiviral activity against wild-type HIV1 3B; assay type: functional
[11] = test system: Human immunodeficiency virus 1; assay: Selectivity ratio of EC50 for antiviral activity against HIV1 harboring N155S mutation in catalytic core domain of integrase to EC50 for antiviral activity against wild-type HIV1 3B; assay type: functional
[12] = test system: Human immunodeficiency virus 1; assay: Selectivity ratio of EC50 for antiviral activity against NRTI-resistant HIV1 harboring RTM184V mutant gene to EC50 for antiviral activity against wild-type HIV1 3B; assay type: functional
[13] = test system: Human immunodeficiency virus 1; assay: Selectivity ratio of EC50 for antiviral activity against NNRTI-resistant HIV1 harboring RTY181C mutant gene to EC50 for antiviral activity against wild-type HIV1 3B; assay type: functional
[14] = test system: Human immunodeficiency virus 1; assay: Selectivity ratio of EC50 for antiviral activity against HIV1 harboring N155H mutation in catalytic core domain of integrase to EC50 for antiviral activity against wild-type HIV1 3B; assay type: functional
[15] = test system: Human immunodeficiency virus 1; assay: Selectivity ratio of EC50 for antiviral activity against HIV1 harboring E92V and V151A mutation in catalytic core domain of integrase to EC50 for antiviral activity against wild-type HIV1 3B; assay type: functional
[16] = test system: Human immunodeficiency virus 1; assay: Selectivity ratio of EC50 for antiviral activity against PI-resistant HIV1 harboring […], V82A and L90M mutant gene to EC50 for antiviral activity against wild-type HIV1 3B; assay type: functional
[17] = test system: Human immunodeficiency virus 1; assay: Selectivity ratio of EC50 for antiviral activity against HIV1 harboring G140S mutation in catalytic core domain of integrase to EC50 for antiviral activity against wild-type HIV1 3B; assay type: functional
[18] = test system: Human immunodeficiency virus 1; assay: Selectivity ratio of EC50 for antiviral activity against HIV1 harboring E92V, G140S and V151A mutation in catalytic core domain of integrase to EC50 for antiviral activity against wild-type HIV1 3B; assay type: functional
[19] = test system: Human immunodeficiency virus 1; assay: Selectivity ratio of EC50 for antiviral activity against HIV1 harboring E92V mutation in catalytic core domain of integrase to EC50 for antiviral activity against wild-type HIV1 3B; assay type: functional
[20] = test system: Human immunodeficiency virus 1; assay: Selectivity ratio of EC50 for antiviral activity against HIV1 harboring V151A mutation in catalytic core domain of integrase to EC50 for antiviral activity against wild-type HIV1 3B; assay type: functional
[21] = test system: Human immunodeficiency virus 1; assay: Selectivity ratio of EC50 for antiviral activity against PI-resistant HIV1 harboring […], L90M mutant gene to EC50 for antiviral activity against wild-type HIV1 3B; assay type: functional
[22] = test system: Human immunodeficiency virus 1; assay: Selectivity ratio of EC50 for antiviral activity against NRTI-resistant HIV1 harboring RT-6TAMs mutant gene to EC50 for antiviral activity against wild-type HIV1 3B; assay type: functional
[23] = test system: Human immunodeficiency virus 1; assay: Selectivity ratio of EC50 for antiviral activity against NNRTI-resistant HIV1 harboring RTK103N mutant gene to EC50 for antiviral activity against wild-type HIV1 3B; assay type: functional
[24] = test system: Human immunodeficiency virus 1; assay: Selectivity ratio of EC50 for antiviral activity against NRTI-resistant HIV1 harboring RTK65R mutant gene to EC50 for antiviral activity against wild-type HIV1 3B; assay type: functional
[25] = test system: Human immunodeficiency virus 1; assay: Selectivity ratio of EC50 for antiviral activity against EFV-resistant HIV1 selected after 7 passages to EC50 for antiviral activity against wild-type HIV1 3B; assay type: functional
[26] = test system: Human immunodeficiency virus 1; assay: Selectivity ratio of EC50 for antiviral activity against GS-9160-resistant HIV1 selected after 8 passages to EC50 for antiviral activity against wild-type HIV1 3B; assay type: functional
[27] = test system: Human immunodeficiency virus 1; assay: Selectivity ratio of EC50 for antiviral activity against GS-9160-resistant HIV1 selected after 9 passages to EC50 for antiviral activity against wild-type HIV1 3B; assay type: functional
[28] = test system: Human immunodeficiency virus 1; assay: Selectivity ratio of EC50 for antiviral activity against 3TC-resistant HIV1 selected after 4 passages to EC50 for antiviral activity against wild-type HIV1 3B; assay type: functional
[29] = test system: Human immunodeficiency virus 1; assay: Selectivity ratio of EC50 for antiviral activity against APV-resistant HIV1 selected after 2 passages to EC50 for antiviral activity against wild-type HIV1 3B; assay type: functional
[30] = test system: Human immunodeficiency virus 1; assay: Selectivity ratio of EC50 for antiviral activity against APV-resistant HIV1 selected after 4 passages to EC50 for antiviral activity against wild-type HIV1 3B; assay type: functional
[31] = test system: Human immunodeficiency virus 1; assay: Selectivity ratio of EC50 for antiviral activity against GS-9160-resistant HIV1 selected after 5 passages to EC50 for antiviral activity against wild-type HIV1 3B; assay type: functional
[32] = test system: Human immunodeficiency virus 1; assay: Selectivity ratio of EC50 for antiviral activity against 3TC-resistant HIV1 selected after 8 passages to EC50 for antiviral activity against wild-type HIV1 3B; assay type: functional
[33] = test system: Human immunodeficiency virus 1; assay: Selectivity ratio of EC50 for antiviral activity against GS-9160-resistant HIV1 selected after 6 passages to EC50 for antiviral activity against wild-type HIV1 3B; assay type: functional
[34] = test system: Human immunodeficiency virus 1; assay: Selectivity ratio of EC50 for antiviral activity against EFV-resistant HIV1 selected after 3 passages to EC50 for antiviral activity against wild-type HIV1 3B; assay type: functional

SMILES	EC50 [1] [nM]	Ratio EC50 [3]	Ratio EC50 [4]	Ratio EC50 [5]	Ratio EC50 [6]	Ratio EC50 [7]	Ratio EC50 [8]	Ratio EC50 [9]	Ratio EC50 [10]	Ratio EC50 [11]	Ratio EC50 [12]	Ratio EC50 [13]	Ratio EC50 [14]	Ratio EC50 [15]	Ratio EC50 [16]	Ratio EC50 [17]	Ratio EC50 [18]	Ratio EC50 [19]	Ratio EC50 [20]	Ratio EC50 [21]	other results
O=C1Nc2ccc(Cl)cc2[C@@](C#CC2CC2)(C(F)(F)F)O1 [EFAVIRENZ]	6.8	–	–	–	–	–	–	–	–	–	–	–	–	–	–	–	–	–	–	–	CC50 [2]: 15500 nM
Nc1nc(=O)n([C@@H]2CS[C@H](CO)O2)cc1F [EMTRICITABINE]	323	2	2	1	0.8	2	2	1	1	3	>55	0.4	2	4	1	1	2	1	3	1	Ratio EC50 [22]: 23; Ratio EC50 [23]: 1; Ratio EC50 [24]: 26
Nc1ccn([C@@H]2CS[C@H](CO)O2)c(=O)n1 [LAMIVUDINE]	–	–	–	–	–	–	–	–	–	–	–	–	–	–	–	–	–	–	–	–	Ratio EC50 [25]: 1; Ratio EC50 [26]: 5.7; Ratio EC50 [27]: 1.4; Ratio EC50 [28]: >272; Ratio EC50 [29]: 7; Ratio EC50 [30]: 9; Ratio EC50 [31]: 1.8; Ratio EC50 [32]: >272; Ratio EC50 [33]: 4.5; Ratio EC50 [34]: 2
Cc1cccc(C)c1OCC(=O)N[C@@H](Cc1ccccc1)[C@@H](O)C[C@H](Cc1ccccc1)NC(=O)[C@H](C(C)C)N1CCCNC1=O [LOPINAVIR]	4.8	1	1	1	1	1	1	1	4	2	3	1	2	1	9	1	2	1	1	29	Ratio EC50 [22]: 5; Ratio EC50 [23]: 1; Ratio EC50 [24]: 3
CC(C)OC(=O)OCOP(=O)(CO[C@H](C)Cn1cnc2c(N)ncnc21)OCOC(=O)OC(C)C.O=C(O)/C=C/C(=O)O [TENOFOVIR DISOPROXIL FUMARATE]	6.8	2	1	2	0.3	1	1	1	1	2	1	1	2	2	1	1	2	2	2	1	Ratio EC50 [22]: 9; Ratio EC50 [23]: 1; Ratio EC50 [24]: 4
